Experimental findings from US7235554B2, “3-heteroaryl-3,5-dihydro-4-oxo-4H-pyridazino[4,5-b] indole-1-acetamide derivatives, preparation and use thereof in medicaments” (Sanofi-Aventis, priority 2002, dated 2007) are described below.

The structures appear in SMILES notation.

One may read the melting point as the temperature, or range, at which the solid turns liquid. As to `CN(C)C(=O)Cc1nn(-c2ccccn2)c(=O)c2c1c1ccc(F)cc1n2C` [Compound 1, 7-fluoro-N,N,5-trimethyl-4-oxo-3-(pyridin-2-yl)-3,5-dihydro-4H-pyridazino[4,5-b]indole-1-acetamide], the melting point lay within 222 to 223 °C.

With `Cc1ccc(-n2nc(CC(=O)N(C)C)c3c4ccc(Cl)cc4n(C)c3c2=O)cn1` [Compound 8, 7-chloro-N,N,5-trimethyl-4-oxo-3-(6-methylpyridin-3-yl)-3,5-dihydro-4H-pyridazino[4,5-b]indole-1-acetamide], the melting point lay within 253 to 255 °C. `CN(C)C(=O)Cc1nn(-c2cccnc2)c(=O)c2c1c1ccc(Cl)cc1n2C.Cl` returned a melting point of 250 to 252 °C. `CN(C)C(=O)Cc1nn(-c2cccnc2)c(=O)c2c1c1ccc(Cl)cc1n2C` [Compound 5, 7-chloro-N,N,5-trimethyl-4-oxo-3-(pyridin-3-yl)-3,5-dihydro-4H-pyridazino[4,5-b]indole-1-acetamide] showed a melting point of 255 to 256 °C. Compound `CCN(CC)C(=O)Cc1nn(-c2cccnc2)c(=O)c2c1c1ccc(Cl)cc1n2C` [Compound 9, 7-chloro-N,N-diethyl-5-methyl-4-oxo-3-(pyridin-3-yl)-3,5-dihydro-4H-pyridazino[4,5-b]indole-1-acetamide] gave a melting point of 199 to 200 °C.

In turn, `CN(C)C(=O)Cc1nn(-c2ccncc2)c(=O)c2c1c1ccc(F)cc1n2C.Cl` came in with a melting point of 267 to 270 °C. `CN(C)C(=O)Cc1nn(-c2cccnc2)c(=O)c2c1c1ccc(F)cc1n2C.Cl` registered a melting point of 244 to 250 °C. Turning to `CN(C)C(=O)Cc1nn(-c2ccccn2)c(=O)c2c1c1ccc(Cl)cc1n2C` [Compound 4, 7-chloro-N,N,5-trimethyl-4-oxo-3-(pyridin-2-yl)-3,5-dihydro-4H-pyridazino[4,5-b]indole-1-acetamide], the melting point is 183 to 184 °C. As to `CN(C)C(=O)Cc1nn(-c2ccncc2)c(=O)c2c1c1ccc(Cl)cc1n2C.Cl`, the melting point lay within 275 to 279 °C.
